US20030017976A1, “Therapeutic properties of liposome-encapsulated immunomodulators” (priority 1998, published 2003)
“And” between values parts separate entries of the source, which are not always exact repeats. Identical values can stand only once. Like-named read-outs stand apart in the source and are kept apart here. Marks after values point to notes of the source that are not given here.

Tests used:
[1] = system: CT-26 colon cancer liver metastasis; assay: Combination therapy of MTP-PE and CPT-11 for CT-26 colon cancer liver metastasis
C57BL/6 mice [2] = assay: Prevention of CPT-11 induced intestinal damage and morbidity by oral immunomodulator; assay type: in vivo, mouse; settings: for Death / Morbidity: 4 daily i.p., oral saline or free-form MTP-PE 100 ug/dose for one week before
Protocol: Experimental Design and Methods. […] Tissue was harvested 7 days after the last injection (small intestine and colon distal to the cecum). Histology was prepared. Some mice were monitored for the presence of drug toxicity.
Example 6 has shown that 100, 150, and 200 mg/kg at 4 consecutive i.p. administrations are highly toxic to C57BL/6 mice.

IL-15 = assay: Ileum and liver lesion histology, BrdUrd and IL-15 expression after JBT 3002 and CPT-11; assay type: in vivo, mouse
Protocol: BALB/c mice were injected with CT-26 colon cancer cells into the spleen. […] Four days after the last injection of CPT-11, some mice were killed and their ileum was harvested and prepared for histology, immunohistochemistry, and molecular biology analyses.

CT-26P colon carcinoma = assay: Combination therapy of CT-26P colon carcinoma with CPT-11 and oral liposomal JBT3002; assay type: in vivo, mouse; settings: day 17; for Liver Weights, mean / Liver Weights, single mice: alone or + oral liposomal JBT3002 1 μg/dose
Protocol: This course of therapy was repeated weekly for about three weeks prior to tissue harvest. Experimental Groups/Procedures: 40 Balb/c mice were divided into 8 groups of 5 mice each. On day 0, the spleens of the mice were injected with 15,000 cultured CT-26P cells. The groups were then treated as follows: The spleens of Balb/c mice were injected with 15,000 cultured CT-26P colon carcinoma cells on day 0. […] Treated mice received two weeks of chemotherapy and three weeks of the macrophage activator. Tissues were harvested on day 17. The spleens and livers were weighed, the extent of metastasis was graded (denoted below) and histology prepared.

[3] = Body weight change and deaths during therapy of CT-26 bearing BALB/c mice; assay type: in vivo, mouse
C57BL/6 mice [4] = system: C57BL/6 mice
CT-26 colon carcinoma = assay: Therapy of experimental liver metastasis of CT-26 colon carcinoma with CPT-11 and oral JBT 3002
[5] = system: L3.6pl human pancreatic tumors; assay: Therapy of L3.6pl human pancreatic tumors in nude mice; assay type: in vivo, mouse; settings: CPT-11 100 mg/kg i.p. once a week +/− oral JBT 3002 (tablet) 0.05 mcg/dose
Protocol: Table 19 (A, B, C). Therapy of human pancreatic carcinoma liver metastasis. The pancreas of nude mice were injected with 1×10^6 viable human pancreatic cancer L3.6pl cells. […] This regimen was repeated on a weekly basis for 3 weeks. The mice were killed. Pancreatic tumors, liver metastases, and lymph node metastasis were quantified.

[6] = CPT-11 50 mg/kg, oral saline or MTP-PE
[7] = Table 10, oral MLV-HBSS, CPT-11 100 mg/kg i.p. once a week, day 23
[8] = Table 11, CPT-11 100 mg/kg i.p. once a week alone, day 24
[9] = Table 12, oral MLV-HBSS, CPT-11 100 mg/kg 4 daily i.p. (intensive), day 14
[10] = Table 13, oral MLV-HBSS, CPT-11 100 mg/kg i.p. once a week, day 23
[11] = Table 14, MLV-JBT 3002 1.0 μg/dose or FF-JBT 3002 0.05 μg/dose oral 3 days, CPT-11 100 mg/kg 4 daily i.p., day 21
[12] = Table 15, oral JBT 3002 0.05 μg/dose 3 consecutive days and/or CPT-11 100 mg/kg 4 daily i.p., day 21
[13] = Table 16, oral JBT3002 0.05 μg dose thrice weekly 3 weeks and/or CPT-11 100 mg/kg i.p. once a week, day 24

SMILES: CCc1c2c(nc3ccc(OC(=O)N4CCC(N5CCCCC5)CC4)cc13)-c1cc3c(c(=O)n1C2)COC(=O)[C@]3(O)CC [CPT-11, Irinotecan]
- Liver Median no. metastases [1, 6]: 30
- Liver weight [1, 6]: 2.0 ± 0.3
- Spleen Tumor size [1, 6]: 8.3 ± 2.0 mm
- Spleen Weight [1, 6]: 0.6 ± 0.2 g
- Death of mice ([1]; CPT-11 100 mg/kg, oral saline): ------------------All mice died.------------------------
- tumor burden of the liver ([1]; CPT-11 25-100 mg/kg, CT-26P injected into the spleen): dose-dependent reduction in tumor burden of the liver
- Death (C57BL/6 mice [2]; CPT-11 100 mg/kg): 0/10
- Morbidity (C57BL/6 mice [2]; CPT-11 100 mg/kg): 8/10
- damage to intestinal tissue (C57BL/6 mice [2]; CPT-11 100 mg/kg, oral MTP-PE 100 μg/dose three consecutive days per week, C57BL/6 mice): induces loss of structural integrity of duodenal and large colon crypts
- Death (C57BL/6 mice [2]; CPT-11 150 mg/kg): 6/10
- Morbidity (C57BL/6 mice [2]; CPT-11 150 mg/kg): 10/10
- Death (C57BL/6 mice [2]; CPT-11 200 mg/kg): 9/10
- Morbidity (C57BL/6 mice [2]; CPT-11 200 mg/kg): 10/10
- GI toxicity (histology of intestinal villi and lumen) (C57BL/6 mice [2]; oral PBS or MTP-PE 100 μg/dose 3×/week for 3 weeks, then 4 i.p. injections of CPT-11): severe damage to the intestinal villi and lumen
- intestinal toxicity (histology) (C57BL/6 mice [2]; oral saline or JBT3002 0.1, 1.0 and 10 μg/dose in PC liposomes, then CPT-11 100 mg/kg i.p. 4 days): induced severe toxicity
- intestinal architecture of ileum (H&E) (IL-15; CPT-11 100 mg/kg, JBT 3002 0.05 μg/dose): produces disruption of the intestinal architecture
- expression of IL-15 in the ileum (IL-15; mouse, in vivo): significant decrease in expression of IL-15
- Spleen Weights, mean (CT-26P colon carcinoma; CPT-11 25 mg/kg once a week, alone or + oral JBT3002 1 μg/dose in PC liposomes 3x/week): 1.284 ± 0.257 grams
- Spleen Weights, single mice (CT-26P colon carcinoma; CPT-11 25 mg/kg once a week, alone or + oral JBT3002 1 μg/dose in PC liposomes 3x/week, 25 mg/kg): 1.486 grams and 0.888 grams and 1.056 grams and 1.588 grams and 1.403 grams
- Liver Weights, mean (CT-26P colon carcinoma; CPT-11 25 mg/kg once a week): 1.670 ± 0.301 grams
- Liver Weights, single mice (CT-26P colon carcinoma; CPT-11 25 mg/kg once a week, 25 mg/kg): 1.416 grams and 1.460 grams and 2.246 grams
- Spleen Weights, mean (CT-26P colon carcinoma; CPT-11 50 mg/kg once a week, alone or + oral JBT3002 1 μg/dose in PC liposomes 3x/week): 0.746 ± 0.561 grams
- Liver Weights, single mice (CT-26P colon carcinoma; CPT-11 50 mg/kg once a week, 50 mg/kg): 1.407 grams and 1.205 grams and 1.525 grams
- Spleen Weights, mean (CT-26P colon carcinoma; CPT-11 100 mg/kg once a week, alone or + oral JBT3002 1 μg/dose in PC liposomes 3x/week): 0.216 ± 0.110 grams
- Liver Weights, mean (CT-26P colon carcinoma; CPT-11 100 mg/kg once a week): 1.203 ± 0.065 grams
- Liver Weights, single mice (CT-26P colon carcinoma; CPT-11 100 mg/kg once a week, 100 mg/kg): 1.105 grams and 1.252 grams and 1.172 grams and 1.293 grams and 1.196 grams
- ΔBW [3, 7]: −1.7%
- ΔBW [3, 8]: −1.5%
- ΔBW [3, 9]: −17.6%
- ΔBW [3, 10]: 1.2%
- ΔBW ([3]; Table 14, MLV-JBT 3002 1.0 μg/dose or FF-JBT 3002 0.05 μg/dose oral 3 days, CPT-11 100 mg/kg 4 daily i.p., day not given): −24.0%
- Mice that died during therapy ([3]; Table 15, CPT-11 100 mg/kg 4 daily i.p. alone, 10 mice, 100 mg/kg): 7 of 10
- Survival (C57BL/6 mice [4]; 100 mg/kg CPT-11 i.p. Day 1-4, C57BL6 mice): 5/5
- Survival (C57BL/6 mice [4]; 150 mg/kg CPT-11 i.p. Day 1-4, C57BL6 mice): 3/5
- Survival (C57BL/6 mice [4]; 200 mg/kg CPT-11 i.p. Day 1-4, C57BL6 mice): 0/5
- deaths (C57BL/6 mice [4]; CPT-11 50, 75 or 100 mg/kg once a day for 4 days (i.p.)): None of the injected mice died
- lethal dose (C57BL/6 mice [4]; i.p. Day 1-4, C57BL6 mice): 200 mg/kg
- Liver metastasis Incidence (CT-26 colon carcinoma; [7]): 5/5
- Liver weight (CT-26 colon carcinoma; [7]): 1.8 ± 0.3^b g
- Spleen (primary) Incidence (CT-26 colon carcinoma; [7]): 5/5
- Liver metastasis Incidence (CT-26 colon carcinoma; [8]): 5/5
- Liver weight (CT-26 colon carcinoma; [8]): 1.7 ± 0.3^c g
- Spleen (primary) Incidence (CT-26 colon carcinoma; [8]): 5/5
- Liver metastasis Incidence (CT-26 colon carcinoma; [9]): 2/5
- Liver weight (CT-26 colon carcinoma; [9]): 1.2 ± 0.1 g
- Spleen (primary) Incidence (CT-26 colon carcinoma; [9]): 5/5
- Liver metastasis Incidence (CT-26 colon carcinoma; [10]): 5/5
- Liver weight (CT-26 colon carcinoma; [10]): 2.6 ± 0.3 g
- Spleen (primary) Incidence (CT-26 colon carcinoma; [10]): 5/5
- Liver metastasis Incidence (CT-26 colon carcinoma; [11]): 0/5^b
- Liver weight (CT-26 colon carcinoma; [11]): 1.2 ± 0.2 g
- Spleen tumor Incidence (CT-26 colon carcinoma; [11]): 5/5^b
- Liver metastasis Incidence (CT-26 colon carcinoma; [12]): 1/10^b
- Liver weight (CT-26 colon carcinoma; [12]): 1.9 ± 0.3^c,d g
- Spleen tumor Incidence (CT-26 colon carcinoma; [12]): 6/10^b
- Liver metastasis Incidence (CT-26 colon carcinoma; [13]): 8/10
- Liver weight (CT-26 colon carcinoma; [13]): 2.0 ± 0.9^c g
- Spleen tumor Incidence (CT-26 colon carcinoma; [13]): 7/10
- Incidence LN met ([5]; 31 days): 7/10
- Incidence WT/PC ([5]; 31 days): 0/10
- Incidence liver met ([5]; 31 days): 0/10
- Tumor weight, Average ([5]; 31 days): 152.10 mg
- Tumor weight, Max ([5]; 31 days): 375 mg
- Tumor weight, Median ([5]; 31 days): 117.5 mg
- Tumor weight, Min ([5]; 31 days): 0 mg
- tumor weight (range) ([5]; 31 days): (0-375) mg
- Tumor weight, single animals ([5]; 31 days after tumor cell injection, 100 mg/kg): 80 mg and 375 mg and 241 mg and 0 mg (2×) and 98 mg and 318 mg and 137 mg and 205 mg and 67 mg
